From article PMC10331583, “Control of fibrosis with enhanced safety via asymmetric inhibition of prolyl‐tRNA synthetase 1” (EMBO Molecular Medicine, 2023)
Several values for one entry are separate records, joined by “and”; a condition that tells them apart may be missing. Equal entries are not always repeated.

Legend:
[1] = test system: WI‐26 VA4 cells stably expressing EV (empty vector); settings: human, 72 h
[2] = in vitro; settings: human, Cytotoxicity
[3] = test system: WI‐26 VA4 cells stably expressing EV (empty vector); experiment: Collagen ELISA in cells stably expressing EV; settings: for Collagen level, average: average of 4 experiments; for Collagen level, single replicates: replicates of Experiments #1-#4
[4] = test system: WI‐26 VA4 cells
[5] = test system: WI‐26 VA4 cells; experiment: Immunoblot of cellular protein levels with different proline content; assay type: cell-based, human; settings: Fig 2A
Description: The levels of proteins were determined by immunoblot assay. […] The lowest concentration at which protein levels started to decrease was normalized by IC50 values for collagen level and used as the y‐axis value. […] The slope and R^2 value were calculated using GraphPad Prism 7.0. […] The activation of the TGF‐β pathway was determined by monitoring the phosphorylation of SMAD2. Immunoblot images are representative of three biologically independent experiments. • The band intensities of the immunoblot images in (C) were quantified using ImageJ (n = 3; One‐way ANOVA; *P < 0.05, **P < 0.01, ***P < 0.001; mean ± SEM). Source data are available online for this figure.

[6] = in vitro; settings: human, Cytotoxicity; remark: listed apart in the source
[7] = % of control (single replicates, Experiment #1-#4)

O=C(CC1NCCCC1O)Cn1cnc2cc(Br)c(Cl)cc2c1=O (centres unmarked) [HF, Halofuginone, reference compound]
Cytotoxicity HillSlope (best-fit value) [1]: -0.8001
Cytotoxicity LogIC50 (best-fit value) [1]: 1.811
activity at 72 h, 0.1 µM [2, 7]: 34.2%
activity at 72 h, 0.001 µM ([2]; % of control, average): 101%
activity at 72 h, 0.003 µM ([2]; % of control, average): 107%
activity at 72 h, 0.03 µM ([2]; % of control, average): 73.6%
activity at 72 h, 0.1 µM ([2]; % of control, average): 42.5%
activity at 72 h, 1 µM ([2]; % of control, average): 19.4%
IC50 ([3]; Homo sapiens, WI26VA4, read-out: IC50, collagen level): 15.2 nM
Collagen level, average ([3]; WI-26 VA4 EV, 0.3 nM): 105.43 % of control
Collagen level, single replicates ([3]; WI-26 VA4 EV, 0.3 nM): 107.71 % of control and 102.31 % of control and 99.56 % of control and 107.96 % of control and 119.37 % of control and 97.79 % of control and 105.72 % of control and 112.41 % of control and 97.00 % of control and 105.68 % of control and 103.25 % of control
Collagen level, average ([3]; WI-26 VA4 EV, 1 nM): 98.88 % of control
Collagen level, single replicates ([3]; WI-26 VA4 EV, 1 nM): 99.81 % of control and 96.49 % of control and 94.72 % of control and 113.88 % of control and 89.98 % of control and 98.97 % of control and 99.45 % of control and 90.47 % of control and 100.22 % of control and 101.63 % of control and 90.65 % of control and 110.29 % of control
Collagen level, average ([3]; WI-26 VA4 EV, 3 nM): 98.91 % of control
Collagen level, single replicates ([3]; WI-26 VA4 EV, 3 nM): 95.48 % of control and 110.90 % of control and 101.31 % of control and 98.76 % of control and 84.68 % of control and 101.40 % of control and 94.43 % of control and 83.51 % of control and 102.77 % of control and 119.57 % of control and 100.02 % of control and 94.04 % of control
Collagen level, average ([3]; WI-26 VA4 EV, 10 nM): 67.80 % of control
Collagen level, single replicates ([3]; WI-26 VA4 EV, 10 nM): 70.56 % of control and 73.60 % of control and 52.16 % of control and 80.52 % of control and 55.32 % of control and 68.13 % of control and 71.03 % of control and 51.88 % of control and 67.22 % of control and 78.89 % of control and 53.10 % of control and 91.18 % of control
Collagen level, average ([3]; WI-26 VA4 EV, 30 nM): 31.49 % of control
Collagen level, single replicates ([3]; WI-26 VA4 EV, 30 nM): 29.59 % of control and 29.66 % of control and 28.02 % of control and 34.01 % of control and 34.11 % of control and 31.81 % of control and 31.01 % of control and 33.29 % of control and 33.04 % of control and 33.86 % of control and 29.96 % of control and 29.53 % of control
Collagen level, average ([3]; WI-26 VA4 EV, 100 nM): 6.34 % of control
Collagen level, single replicates ([3]; WI-26 VA4 EV, 100 nM): 7.42 % of control and 5.23 % of control and 5.03 % of control and 5.46 % of control and 5.70 % of control and 6.01 % of control and 7.87 % of control and 7.08 % of control and 6.26 % of control and 7.39 % of control and 6.77 % of control and 5.82 % of control
Collagen level, average ([3]; WI-26 VA4 EV, 300 nM): 4.49 % of control
Collagen level, single replicates ([3]; WI-26 VA4 EV, 300 nM): 4.87 % of control and 3.68 % of control and 2.38 % of control and 3.50 % of control and 4.00 % of control and 5.84 % of control and 5.04 % of control and 4.31 % of control and 5.22 % of control and 6.88 % of control and 2.82 % of control and 5.35 % of control
Collagen level, average ([3]; WI-26 VA4 EV, 1000 nM): 5.68 % of control
Collagen level, single replicates ([3]; WI-26 VA4 EV, 1000 nM): 6.31 % of control and 4.51 % of control and 4.24 % of control and 5.46 % of control and 6.24 % of control and 6.40 % of control and 5.99 % of control and 5.56 % of control and 5.73 % of control and 6.61 % of control and 4.97 % of control and 6.15 % of control
HillSlope, collagen level ([3]; WI-26 VA4 EV, four-parameter fit): -1.549
LogIC50, collagen level ([3]; WI-26 VA4 EV, log of concentration in nM, four-parameter fit): 1.181
TI (CC50/IC50 for collagen level) [4]: 3.46
effective dose for decreasing general proteins (SMAD2, AIMP2, AMPKα, cyclin D1) compared with COL1A1 [5]: about three times
activity at 72 h, 0.001 µM [6, 7]: 107%
activity at 72 h, 0.01 µM [6, 7]: 96.3%
activity at 72 h, 0.03 µM [6, 7]: 71.4%
activity at 72 h, 0.3 µM [6, 7]: 34.8%
activity at 72 h, 0.001 µM ([6]; % of control, average): 106%
activity at 72 h, 0.003 µM ([6]; % of control, average): 109%
activity at 72 h, 0.03 µM ([6]; % of control, average): 76.1%
activity at 72 h, 0.1 µM ([6]; % of control, average): 41.8%
activity at 72 h, 1 µM ([6]; % of control, average): 20%
